Literature values as cited in patent US7056947B2, “Aza-peptide epoxides” (Georgia Tech Research Corp., priority 2002, dated 2006).

Legend:
ficin = settings: E-64; cited from earlier work
fruit bromelain = fruit bromelain (Ananas comosus, UniProt O23791); settings: E-64; cited from earlier work
stem bromelain = stem bromelain (Ananas comosus, UniProt P14518); settings: E-64; cited from earlier work
papain = biological target: T1, papain (Carica papaya, UniProt P00784); settings: E-64; cited from earlier work
T1 sequence (P00784 134-345): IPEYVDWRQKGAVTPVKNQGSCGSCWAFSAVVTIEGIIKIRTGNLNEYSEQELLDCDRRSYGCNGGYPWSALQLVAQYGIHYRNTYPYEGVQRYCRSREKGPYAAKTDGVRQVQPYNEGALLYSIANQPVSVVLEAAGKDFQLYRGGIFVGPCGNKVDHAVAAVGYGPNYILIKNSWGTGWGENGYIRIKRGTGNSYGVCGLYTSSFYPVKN

cathepsin B = cathepsin B (Homo sapiens, UniProt P07858); settings: E-64; cited from earlier work
cathepsin H = cathepsin H (Homo sapiens, UniProt P09668); settings: E-64; cited from earlier work
cathepsin L = cathepsin L (Homo sapiens, UniProt P07711); settings: E-64; cited from earlier work
cathepsin K = cathepsin K (Homo sapiens, UniProt P43235); settings: E-64; cited from earlier work
cathepsin S = cathepsin S (Homo sapiens, UniProt P25774); settings: E-64; cited from earlier work
cathepsin X = cathepsin X (Homo sapiens, UniProt Q9UBR2); settings: E-64; cited from earlier work
cathepsin O = settings: E-64; cited from earlier work
cathepsin F = cathepsin F (Homo sapiens, UniProt Q9UBX1); settings: E-64, rate not given; cited from earlier work
cathepsin V = cathepsin V (Homo sapiens, UniProt O60911); settings: E-64; cited from earlier work
cathepsin J = settings: E-64, rate not given; cited from earlier work
DPPI = DPPI (Homo sapiens, UniProt P53634); settings: E-64; cited from earlier work
streptococcal proteinase = streptococcal proteinase (Streptococcus pyogenes, UniProt P0C0J0); settings: cited from earlier work
papaya proteinase IV = papaya proteinase IV (Carica papaya, UniProt P05994); settings: E-64; cited from earlier work
calpain II = calpain II (Homo sapiens, UniProt P17655); settings: E-64; cited from earlier work
bleomycin hydrolase = bleomycin hydrolase (Homo sapiens, UniProt Q13867); settings: E-64; cited from earlier work
cruzain = cruzain (Trypanosoma cruzi, UniProt P25779); settings: E-64; cited from earlier work
vignain = vignain (Vigna mungo, UniProt P12412); settings: E-64; cited from earlier work
trypsin = biological target: T2, trypsin (Bos taurus, UniProt P00760); settings: E-64; cited from earlier work
T2 construct: gene PRSS1

α-chymotrypsin = α-chymotrypsin (Bos taurus, UniProt P00766); settings: E-64; cited from earlier work
kallikrein = settings: E-64; cited from earlier work
pepsin = pepsin (Homo sapiens, UniProt P0DJD8); settings: E-64; cited from earlier work
plasmin = plasmin (Homo sapiens, UniProt P00747); settings: E-64; cited from earlier work
elastase = settings: E-64; cited from earlier work
mold acid protease = settings: E-64; cited from earlier work
LDH = settings: E-64; cited from earlier work
thermolysin = thermolysin (Bacillus thermoproteolyticus, UniProt P00800); settings: E-64; cited from earlier work
collagenase = settings: E-64; cited from earlier work
clostripain = clostripain (Hathewaya histolytica, UniProt P09870); settings: E-64; cited from earlier work
caspase 1 (ICE) = caspase 1 (ICE) (Homo sapiens, UniProt P29466); settings: E-64; cited from earlier work
legumain = legumain (Homo sapiens, UniProt Q99538); settings: E-64; cited from earlier work
Chain of legumain (Q99538 18-323, species assumed): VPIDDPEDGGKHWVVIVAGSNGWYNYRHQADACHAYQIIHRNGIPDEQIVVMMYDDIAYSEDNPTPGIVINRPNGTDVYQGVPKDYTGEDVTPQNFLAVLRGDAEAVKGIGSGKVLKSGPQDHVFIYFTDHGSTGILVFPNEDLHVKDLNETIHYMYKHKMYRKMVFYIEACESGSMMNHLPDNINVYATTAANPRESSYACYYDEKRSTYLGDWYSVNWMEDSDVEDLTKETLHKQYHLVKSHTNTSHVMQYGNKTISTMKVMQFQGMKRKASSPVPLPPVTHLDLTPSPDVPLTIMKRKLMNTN

Chain of calpain II (P17655 whole entry): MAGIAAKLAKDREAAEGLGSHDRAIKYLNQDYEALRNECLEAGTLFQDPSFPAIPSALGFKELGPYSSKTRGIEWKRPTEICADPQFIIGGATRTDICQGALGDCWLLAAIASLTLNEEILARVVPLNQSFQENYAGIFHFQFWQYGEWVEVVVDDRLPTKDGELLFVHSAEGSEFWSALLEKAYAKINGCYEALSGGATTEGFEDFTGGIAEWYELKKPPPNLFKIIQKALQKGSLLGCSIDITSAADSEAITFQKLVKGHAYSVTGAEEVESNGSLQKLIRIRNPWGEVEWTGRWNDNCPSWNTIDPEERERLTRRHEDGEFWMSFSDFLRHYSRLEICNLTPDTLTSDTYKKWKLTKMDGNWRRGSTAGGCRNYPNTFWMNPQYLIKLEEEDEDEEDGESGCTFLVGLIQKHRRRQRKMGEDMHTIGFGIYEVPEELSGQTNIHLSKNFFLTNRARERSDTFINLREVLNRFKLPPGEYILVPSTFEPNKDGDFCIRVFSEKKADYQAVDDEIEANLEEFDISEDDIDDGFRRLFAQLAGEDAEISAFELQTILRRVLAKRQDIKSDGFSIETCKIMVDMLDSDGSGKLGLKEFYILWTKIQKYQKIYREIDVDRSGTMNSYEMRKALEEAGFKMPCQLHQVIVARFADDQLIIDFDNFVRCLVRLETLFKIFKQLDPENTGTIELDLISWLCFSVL
Chain of calpain II (P04632 whole entry partner): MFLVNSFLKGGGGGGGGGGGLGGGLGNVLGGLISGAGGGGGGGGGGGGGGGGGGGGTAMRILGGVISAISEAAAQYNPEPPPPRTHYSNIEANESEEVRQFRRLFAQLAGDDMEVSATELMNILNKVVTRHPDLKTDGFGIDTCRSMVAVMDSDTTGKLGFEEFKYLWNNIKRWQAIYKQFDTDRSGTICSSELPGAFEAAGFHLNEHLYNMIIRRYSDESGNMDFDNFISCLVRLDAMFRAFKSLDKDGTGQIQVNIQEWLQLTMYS
Chain of fruit bromelain (O23791 122-351): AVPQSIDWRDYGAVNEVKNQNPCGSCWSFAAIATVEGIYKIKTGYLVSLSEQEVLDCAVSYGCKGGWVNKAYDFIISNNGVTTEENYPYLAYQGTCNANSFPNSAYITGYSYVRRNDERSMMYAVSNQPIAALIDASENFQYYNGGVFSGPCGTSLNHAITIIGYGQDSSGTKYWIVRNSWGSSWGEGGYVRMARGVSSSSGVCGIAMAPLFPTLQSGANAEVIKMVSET
Chain of thermolysin (P00800 233-548): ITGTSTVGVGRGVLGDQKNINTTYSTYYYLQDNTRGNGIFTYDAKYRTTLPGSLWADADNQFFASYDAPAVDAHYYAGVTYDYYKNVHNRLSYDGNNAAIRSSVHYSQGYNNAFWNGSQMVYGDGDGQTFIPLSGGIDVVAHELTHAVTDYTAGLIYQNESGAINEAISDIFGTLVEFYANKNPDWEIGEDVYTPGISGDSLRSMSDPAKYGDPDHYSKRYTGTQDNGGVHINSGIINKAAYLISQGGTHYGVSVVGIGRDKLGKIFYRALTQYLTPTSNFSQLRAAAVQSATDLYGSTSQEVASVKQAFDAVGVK
Chain of bleomycin hydrolase (Q13867 whole entry, species assumed): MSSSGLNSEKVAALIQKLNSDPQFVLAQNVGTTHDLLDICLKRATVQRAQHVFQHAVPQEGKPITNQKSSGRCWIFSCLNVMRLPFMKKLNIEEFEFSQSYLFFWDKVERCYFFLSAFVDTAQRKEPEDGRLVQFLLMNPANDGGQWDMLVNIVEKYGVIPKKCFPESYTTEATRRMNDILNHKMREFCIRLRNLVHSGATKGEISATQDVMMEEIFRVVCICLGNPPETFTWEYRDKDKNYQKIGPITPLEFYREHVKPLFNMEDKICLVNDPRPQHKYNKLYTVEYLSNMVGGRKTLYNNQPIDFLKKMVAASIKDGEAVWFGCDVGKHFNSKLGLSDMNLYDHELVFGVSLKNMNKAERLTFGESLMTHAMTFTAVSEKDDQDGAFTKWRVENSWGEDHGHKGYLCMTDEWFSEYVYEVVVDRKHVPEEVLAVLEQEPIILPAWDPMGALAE
Chain of cathepsin L (P07711 114-333, species assumed): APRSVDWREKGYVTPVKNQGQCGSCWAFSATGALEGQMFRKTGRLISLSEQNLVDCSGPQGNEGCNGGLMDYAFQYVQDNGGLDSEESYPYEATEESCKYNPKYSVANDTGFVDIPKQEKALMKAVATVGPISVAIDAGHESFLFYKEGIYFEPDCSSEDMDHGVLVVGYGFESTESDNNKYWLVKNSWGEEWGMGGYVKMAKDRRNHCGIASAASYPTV
Chain of cathepsin K (P43235 115-329, species assumed): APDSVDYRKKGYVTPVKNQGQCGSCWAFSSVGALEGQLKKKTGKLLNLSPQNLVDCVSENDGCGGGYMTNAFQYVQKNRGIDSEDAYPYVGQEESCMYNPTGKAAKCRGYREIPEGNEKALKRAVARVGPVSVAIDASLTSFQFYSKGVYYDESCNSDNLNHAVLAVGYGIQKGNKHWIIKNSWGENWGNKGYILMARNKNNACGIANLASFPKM
Chain of cruzain (P25779 123-467): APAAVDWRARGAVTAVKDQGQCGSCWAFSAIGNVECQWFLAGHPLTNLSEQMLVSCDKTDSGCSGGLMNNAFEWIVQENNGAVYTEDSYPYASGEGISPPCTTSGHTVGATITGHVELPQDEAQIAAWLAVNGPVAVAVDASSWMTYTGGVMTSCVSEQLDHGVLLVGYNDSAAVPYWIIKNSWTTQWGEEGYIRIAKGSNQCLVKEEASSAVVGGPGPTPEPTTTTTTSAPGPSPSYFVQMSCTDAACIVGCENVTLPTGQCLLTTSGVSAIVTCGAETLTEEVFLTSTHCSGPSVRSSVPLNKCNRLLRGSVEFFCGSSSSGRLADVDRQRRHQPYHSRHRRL
Chain of cathepsin F (Q9UBX1 271-484, species assumed): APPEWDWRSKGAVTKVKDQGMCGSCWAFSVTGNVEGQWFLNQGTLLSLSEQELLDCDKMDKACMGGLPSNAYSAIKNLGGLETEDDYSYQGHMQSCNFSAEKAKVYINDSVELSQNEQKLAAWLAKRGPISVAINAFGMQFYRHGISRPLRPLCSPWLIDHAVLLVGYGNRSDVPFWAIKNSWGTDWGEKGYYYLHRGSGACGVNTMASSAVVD
Chain of plasmin (P00747 97-810, species assumed): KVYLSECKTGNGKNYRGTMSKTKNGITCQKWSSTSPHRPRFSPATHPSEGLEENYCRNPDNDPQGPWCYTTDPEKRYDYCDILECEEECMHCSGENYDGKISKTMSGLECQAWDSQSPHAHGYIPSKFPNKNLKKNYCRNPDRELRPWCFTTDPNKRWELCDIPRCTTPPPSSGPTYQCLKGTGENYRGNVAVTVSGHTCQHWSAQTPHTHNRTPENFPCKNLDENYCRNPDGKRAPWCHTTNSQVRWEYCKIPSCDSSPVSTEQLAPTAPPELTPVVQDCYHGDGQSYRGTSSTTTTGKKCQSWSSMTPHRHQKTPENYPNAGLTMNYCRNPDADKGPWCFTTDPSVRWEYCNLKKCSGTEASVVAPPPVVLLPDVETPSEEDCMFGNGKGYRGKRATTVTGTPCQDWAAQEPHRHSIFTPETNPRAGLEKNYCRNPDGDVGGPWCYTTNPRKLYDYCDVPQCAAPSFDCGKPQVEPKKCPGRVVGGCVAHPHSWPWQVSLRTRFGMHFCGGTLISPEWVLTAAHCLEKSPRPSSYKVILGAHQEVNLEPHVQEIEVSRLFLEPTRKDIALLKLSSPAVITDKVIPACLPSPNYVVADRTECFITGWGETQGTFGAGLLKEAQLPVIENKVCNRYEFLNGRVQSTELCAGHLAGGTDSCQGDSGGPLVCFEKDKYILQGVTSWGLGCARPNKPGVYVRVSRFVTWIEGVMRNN
Chain of cathepsin X (Q9UBR2 62-303): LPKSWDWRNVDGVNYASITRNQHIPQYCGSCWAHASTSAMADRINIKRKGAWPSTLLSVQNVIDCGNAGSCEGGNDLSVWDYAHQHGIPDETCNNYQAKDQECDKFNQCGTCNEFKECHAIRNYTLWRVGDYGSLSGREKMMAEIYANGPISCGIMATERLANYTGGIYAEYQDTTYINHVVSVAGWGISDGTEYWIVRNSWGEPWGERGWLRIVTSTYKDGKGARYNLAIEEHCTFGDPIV
Chain of stem bromelain (P14518 whole entry): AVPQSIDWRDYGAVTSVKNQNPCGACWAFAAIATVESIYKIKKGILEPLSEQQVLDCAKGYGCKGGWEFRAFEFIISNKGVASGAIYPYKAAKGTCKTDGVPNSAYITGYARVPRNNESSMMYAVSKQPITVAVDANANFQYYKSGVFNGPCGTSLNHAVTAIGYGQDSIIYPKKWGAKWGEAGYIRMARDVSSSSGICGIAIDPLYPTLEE
Chain of caspase 1 (ICE) (P29466 120-404, species assumed): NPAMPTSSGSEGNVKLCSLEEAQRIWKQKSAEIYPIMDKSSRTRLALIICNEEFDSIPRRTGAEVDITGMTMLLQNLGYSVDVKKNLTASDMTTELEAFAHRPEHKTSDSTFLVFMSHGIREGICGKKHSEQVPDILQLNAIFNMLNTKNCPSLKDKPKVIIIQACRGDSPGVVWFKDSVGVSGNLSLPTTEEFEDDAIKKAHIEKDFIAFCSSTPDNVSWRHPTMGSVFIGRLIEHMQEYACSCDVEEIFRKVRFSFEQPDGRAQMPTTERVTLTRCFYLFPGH

CC(C)C[C@H](NC(=O)[C@H]1O[C@@H]1C(=O)O)C(=O)NCCCCNC(=N)N [E-64, N-(N-(L-3-trans-carboxyoxiran-2-carbonyl)-L-leucyl)agmatine]
ID50, ficin (ficin): 0.084 (ID50) | ID50, fruit bromelain (fruit bromelain): 0.110 (ID50) | ID50, stem bromelain (stem bromelain): 0.025 (ID50) | ID50, papain (papain): 0.104 (ID50) | rate, cathepsin B (cathepsin B): 89,400 M^−1 s^−1 | rate, cathepsin H (cathepsin H): 4,000 M^−1 s^−1 | rate, cathepsin L (cathepsin L): 96,250 M^−1 s^−1 | Ki (cathepsin K): 1.8 nM | rate, cathepsin S (cathepsin S): 99,000 M^−1 s^−1 | rate, cathepsin X (cathepsin X): 775 M⁻¹ s⁻¹ | IC50 (cathepsin O): > 100000 nM | enzymes inactivated: cathepsin F (cathepsin F): cathepsin F | IC50 (cathepsin V): > 100 nM | enzymes inactivated: cathepsin J (cathepsin J): cathepsin J | rate, DPPI (DPPI): 100 M⁻¹ s⁻¹ | rate, streptococcal proteinase (streptococcal proteinase): 624 M⁻¹ s⁻¹ | rate, papaya proteinase IV (papaya proteinase IV): 58,000 M^−1 s^−1 | rate, calpain II (calpain II): 7,500 M^−1 s^−1 | IC50 (bleomycin hydrolase): > 160000 nM | rate, cruzain (cruzain): 70,600 M^−1 s^−1 | rate, vignain (vignain): 32,500 M^−1 s^−1 | enzymes not inactivated: trypsin (trypsin): trypsin | enzymes not inactivated: α-chymotrypsin (α-chymotrypsin): α-chymotrypsin | enzymes not inactivated: kallikrein (kallikrein): kallikrein | enzymes not inactivated: pepsin (pepsin): pepsin | enzymes not inactivated: plasmin (plasmin): plasmin | enzymes not inactivated: elastase (elastase): elastase | enzymes not inactivated: mold acid protease (mold acid protease): mold acid protease | enzymes not inactivated: LDH (LDH): LDH | enzymes not inactivated: thermolysin (thermolysin): thermolysin | enzymes not inactivated: collagenase (collagenase): collagenase | enzymes not inactivated: clostripain (clostripain): clostripain | enzymes not inactivated: caspase 1 (ICE) (caspase 1 (ICE)): caspase 1 (ICE) | enzymes not inactivated: legumain (legumain): legumain
